These results are taken from patent US20260200990A1, “MODIFIED LONG PEPTIDES SUITABLE FOR USE IN IMMUNISATION” (ISABELLA PHARMA B.V., priority 2022, published 2026).

Ends that are not written are not given here.

Data set [1] is described as follows: Stability of peptide mixtures under long term and accelerated storage (UPLC). Type of data set: physicochemical. The conditions noted are these: peptide in mixture of 6 peptides. On the procedure: To examine the effect on stability of peptides that contain cystine (oxidized, C (C)) present in a mixture of 6 peptides, two examples of mixtures of both non-cysteine-containing (NCC1-6) and cystine-containing (SEQ ID NO: 1-6) peptides were assessed. Typical chromatograms of the two mixtures are depicted in FIG. 2. Both mixtures were placed on two different storage conditions, ‘long term storage condition’ (i.e. −20±5° C.) and ‘accelerated storage condition’ (i.e. 5±3° C.).
The purity, the level of impurities, and the quantification per peptide of both mixtures are determined by reversed phase rapid UPLC using a mobile phase gradient of ACN/IPA and water with TFA, and UV detection at λ=220 nm. The method quantifies main peaks and impurities in mixtures of peptides. The reporting threshold for the method is 0.10% a/a.
Both mixtures of six peptides were stored under the two conditions described and by using the analytical method as described. The stability was monitored. The quantity of each of the peptides present in the mix (assay values), the purity, and the individual impurities were measured at several timepoints over a period of 3 months. […] Furthermore, focussing on the individual impurities it is shown that no significant degradation has taken place as all levels remain constant and no new impurities have formed.

The test system of data set [2] is T cells cultured from PBMC from healthy donors. The data set can be described thus: T cell induction by PRAME-based SLPs, IFNy ELISpot (test 1 and test 2). Further details: species or system human; key to ELISPOT IFNy / ELISPOT IFNy, summary of the results in the table: − (negative); + (positive); When at least one donor had a positive response, this is denoted as POS. As to the method: The capacity of human-PRAME-based SLPs to activate T cells was studied. The biological activity of the synthesized and purified SLPs was tested using PBMC from healthy donors. Monocytes were isolated using anti-CD14 beads by magnet activated cell sorting (MACS) following the protocol of the supplier (Miltenyi Biotec). In short, PBMCs were isolated by centrifugation over a Ficoll gradient and cryopreserved. To generate dendritic cells (DCs), approximately […] thawed PBMC were used for the isolation of CD14 positive cells. The cells were cultured for three days at 37° C. in 2 ml/well of IMDM 4% human serum (HS) containing 800 U/ml GM-CSF and 500 U/ml IL-4 (Peprotech). After 3 days 1 mL/well of IMDM 4% HS with GM-CSF (2400 U/mL) and IL-4 (1500 U/mL) was added to the monocytes-derived DCs and these adhered cells were cultured for an additional 3 days. On day 6, long peptides distributed over 2 pools were added to monocyte-derived DCs of naive donors at a 13 μM concentration and incubated overnight at 37° C. The next day (day 7) peptide-loaded DCs were harvested, irradiated (1000 rad), washed and mixed in a 1:10 ratio with autologous PBMC in IMDM 8% human serum in the presence of IL-7 (10 ng/ml) and IL-12p70 (100 μg/mL).
On day 10 new DCs were generated and loaded, after 6 days, with SLPs on day 16 as described above. The next day, these peptide-loaded DCs were harvested, irradiated (1000 rad) and washed. Also the cultured T cells were harvested. Both were counted and mixed in a 1:10 ratio (DC:T) in IMDM 8% human serum in the presence of IL-7 (10 ng/ml) and IL-12p70 (100 μg/mL) for the first restimulation. On the same day, new DCs were generated as described above that were loaded with SLPs on day 23 as described above. The next day, peptide-loaded DCs were harvested, irradiated (1000 rad) and washed. Also the cultured and restimulated T cells were harvested. Both were counted and mixed in a 1:10 ratio (DC:T) in IMDM 8% human serum in the presence of IL-7 (10 ng/ml) and IL-12p70 (100 μg/mL) for the second restimulation.
On this day 24, also test 1 was started in which DCs loaded with individual SLPs were cultured with harvested T cells from restimulation 1. For test 1, DCs and harvested T cells were cultured in a 1:10 ratio for 2 days after which cells were transferred to a coated ELISpot plate (see description below). On day 24, new DCs were generated as described above that were loaded with SLPs on day 30 as described above. The next day, peptide-loaded DCs were harvested, irradiated (1000 rad) and washed. Also the cultured twice restimulated T cells were harvested. Both were counted and mixed in a 1:10 ratio (DC:T) in IMDM 8% human serum in the presence of IL-2 (30 IU/mL) and IL-12p70 (100 μg/mL) for the third restimulation.
On day 31, also test 2 was started in which DCs loaded with individual SLPs were cultured with harvested T cells from restimulation 2. For test 2, DCs and harvested T cells were cultured in a 1:10 ratio for 2 days after which cells were transferred to a coated ELISpot plate (see description below).
The T cell cultures were restimulated three times in 1-week cycles using peptide loaded autologous moDCs. After the 2nd and 3rd restimulation, reactivity towards single SLPs was tested (test 1 and test 2, respectively). Reactivity was determined by measuring IFNy production using ELISpot.
For ELISpot analysis, multiscreen plates were coated with an IFNy coating antibody overnight at 4° C. The next day, the plate was washed 4× with PBS and blocking was done using IMDM 8% HS at 37° C. for at least one hour. Each sample was tested in triplicate. As a positive control, phytoheamagglutinin (PHA, 1 μg/mL) was added to cells that were not stimulated with SLP after thawing. The plate was cultured overnight at 37° C. Thereafter, cells were discarded and the plate was washed using PBS/0.05% Tween-20. The IFNy detection antibody was diluted and added to each well and incubated for 2 hours at room temperature. […]

Setting [3] is: donor BC290, Test 1, 2 peptide pools.
[4] abbreviates: donor BC290, Test 2, 2 peptide pools.
Where [5] appears, read: donor BC298, Test 1, 2 peptide pools.
[6] abbreviates: donor BC298, Test 2, 2 peptide pools.
Setting [7] is: donor BC305, Test 1, 2 peptide pools.
Setting [8] is: donor BC305, Test 2, 2 peptide pools.
Setting [9] is: donor BC306, Test 1, 2 peptide pools.
Where [10] appears, read: donor BC306, Test 2, 2 peptide pools.
The mark [11] stands for this setting: donor BC312, Test 1, 2 peptide pools.
Where [12] appears, read: donor BC312, Test 2, 2 peptide pools.
Where [13] appears, read: donor BC315, Test 1, 2 peptide pools.
The mark [14] stands for this setting: donor BC315, Test 2, 2 peptide pools.
The mark [15] stands for this setting: donor BC321, Test 1, 2 peptide pools.
[16] abbreviates: donor BC321, Test 2, 2 peptide pools.

Take “VVNHYFQTRHYLHTLWKAGILYKRETTRSASFCGSPYSW (VVNHYFQTRHYLHTLWKAGILYKRETTRSASFC(Cys)GSPYSW) [SEQ ID 5, HBV Pol fragment SLP with cysteinylated cysteine]”: the “Assay (net peptide content) (mg/vial)” value is given as 0.20 mg/vial in data set [1] (Initial); 0.20 mg/vial in data set [1] (Storage at 5 ± 3° C., T1M); 0.21 mg/vial in data set [1] (Storage at 5 ± 3° C., T2M); 0.22 mg/vial in data set [1] (Storage at 5 ± 3° C., T3M); 0.20 mg/vial in data set [1] (Storage at −20 ± 5° C., T2M); 0.22 mg/vial in data set [1] (Storage at −20 ± 5° C., T3M).
On to LSAMSTTDLEAYFKDCLFKDWEELG [SEQ ID 2], for which the “Assay (net peptide content) (mg/vial)” value came to 0.24 mg/vial in data set [1] (Initial); 0.24 mg/vial in data set [1] (Storage at 5 ± 3° C., T1M); 0.25 mg/vial in data set [1] (Storage at 5 ± 3° C., T2M); 0.25 mg/vial in data set [1] (Storage at 5 ± 3° C., T3M); 0.25 mg/vial in data set [1] (Storage at −20 ± 5° C., T2M); 0.25 mg/vial in data set [1] (Storage at −20 ± 5° C., T3M).
With “LKAMVQAWPFTCLPLGVLMKGQHLHLETFKAVL (LKAMVQAWPFTC(cysteinyl)LPLGVLMKGQHLHLETFKAVL; listed as Homo sapiens) [SEQ ID NO: 38, PRAME-based SLP, cysteinylated form tested]”, the “ELISPOT IFNy, summary of the results in the table” value in data set [2] (Table 5, all donors) is “POS”. Also, the “ELISPOT IFNy” value in data set [2] (setting [3]) was “−”; in data set [2] (setting [4]), “−”; in data set [2] (setting [5]), “+”; in data set [2] (setting [6]) it was “+”; in data set [2] (setting [7]), “−”; in data set [2] (setting [8]), “−”. In addition, the “ELISPOT IFNy” value in data set [2] (setting [9]), in data set [2] (setting [10]), in data set [2] (setting [11]), in data set [2] (setting [12]), in data set [2] (setting [13]) and in data set [2] (setting [14]) was “−” each time. The “ELISPOT IFNy” value in data set [2] (setting [15]) was “+”; in data set [2] (setting [16]) it was “−”.
Consider “LLPRELFPPLFMAAFDGRHSQTLKAMVQAWPF (listed as Homo sapiens) [SEQ ID NO: 43, PRAME-based SLP]”, for which the “ELISPOT IFNy” value in data set [2] (setting [5]), in data set [2] (setting [6]), in data set [2] (setting [7]), in data set [2] (setting [8]), in data set [2] (setting [9]) and in data set [2] (setting [10]) was “−” in each case. The “ELISPOT IFNy” value is on record as “−” in data set [2] (setting [11]), “−” in data set [2] (setting [12]), “+” in data set [2] (setting [15]) and “−” in data set [2] (setting [16]).
Consider “VLSLSGVMLTDVSPEPLQALLERASATLQDLVFDE (listed as Homo sapiens) [SEQ ID NO: 50, PRAME-based SLP of WO2008118017, reference compound]”, for which the “ELISPOT IFNy” value is “−” in data set [2] (donor BC228, Test 1, pool of 3 peptides); “−” in data set [2] (donor BC228, Test 2, pool of 3 peptides); “−” in data set [2] (setting [3]); “−” in data set [2] (setting [4]); “−” in data set [2] (setting [5]); “−” in data set [2] (setting [6]). Besides, the “ELISPOT IFNy” value in data set [2] (donor BC303, Test 1, pool of 3 peptides) is “−”; in data set [2] (donor BC303, Test 2, pool of 3 peptides), “−”; in data set [2] (setting [7]), “−”; in data set [2] (setting [8]), “−”; in data set [2] (setting [9]), “−”; in data set [2] (setting [10]), “−”. Besides, the “ELISPOT IFNy” value is “−” in data set [2] (setting [11]); “−” in data set [2] (setting [12]); “−” in data set [2] (donor BC314, Test 1, pool of 3 peptides); “−” in data set [2] (donor BC314, Test 2, pool of 3 peptides); “−” in data set [2] (setting [13]); “−” in data set [2] (setting [14]). The “ELISPOT IFNy” value in data set [2] (donor BC320, Test 1, pool of 3 peptides) was “−”; in data set [2] (donor BC320, Test 2, pool of 3 peptides), “−”; in data set [2] (setting [15]) it was “−”; in data set [2] (setting [16]) it was “−”; in data set [2] (donor BC322, Test 1, pool of 3 peptides), “−”; in data set [2] (donor BC322, Test 2, pool of 3 peptides) it was “−”. The “ELISPOT IFNy” value in data set [2] (donor BC323, Test 1, pool of 3 peptides) is reported as “−”; in data set [2] (donor BC323, Test 2, pool of 3 peptides), “−”. In addition, the “IFNy response in in vitro human T cell cultures” value in data set [2] (summary over the donors tested) is given as “did not show convincing responses”.
On to “YPALMPLYACIQAKQAFTFSPTYKAFLSKQYMNLYPVAR (cysteinylated cysteine) [SEQ ID 6, HBV Pol fragment SLP with cysteinylated cysteine]”, for which the “Assay (net peptide content) (mg/vial)” value was determined as 0.21 mg/vial in data set [1] (Initial); 0.20 mg/vial in data set [1] (Storage at 5 ± 3° C., T1M); 0.21 mg/vial in data set [1] (Storage at 5 ± 3° C., T2M); 0.22 mg/vial in data set [1] (Storage at 5 ± 3° C., T3M); 0.20 mg/vial in data set [1] (Storage at −20 ± 5° C., T2M); 0.22 mg/vial in data set [1] (Storage at −20 ± 5° C., T3M).
